Structures are written as SMILES. Structures can show the parent of a compound that is named as a salt.

In the assay the test system is THP-1 cells. Put plainly: cells. Type of assay: cell-based. The following applies: Homo sapiens, THP-1, 96 h. As to the method: By analyzing the induction of CD11b membrane expression on THP-1 cells we are assessing the ability of LSD1 inhibitors to induce terminal monocytic differentiation of a MLL-AF9 AML cell line.
They carry t(9; 11)(p21; q23) leading to MLL-MLLT3 (MLL-AF9) fusion gene. This cell line can undergo monocytic differentiation upon treatment with the appropriate stimulus.
In this assay, 150,000 THP-1 cells were seeded in 1 ml of complete culture medium in 6-well tissue culture plates. Serial dilutions of the compounds were prepared in DMSO and then further diluted in complete medium to generate solutions of concentrations that are double of the final concentration at which the cells will be exposed. 1 ml of these 2× concentrated solutions was added to the cells.
Cells were kept in the presence of compounds for 96 h at a 5% CO2 atmosphere at 37° C. After this treatment period, cells were harvested, washed twice with PBS buffer and placed in a V-bottom 96-well plate. Each treated sample was split in two.
Percentage of CD11b positive cells, as an indicator of monocytic differentiation, was determined compared to isotype control antibody stained cells. EC50 values were calculated by non-linear regression analysis.

For the molecule `c1ccc([C@H]2C[C@@H]2NC2CCNCC2)cc1` (racemic) [Example 1, N-((trans)-2-phenylcyclopropyl)piperidin-4-amine hydrochloride], a half-maximal effect (EC50) was put at 2.1 nM.

In turn, `c1ccc([C@@H]2C[C@H]2NC2CCNCC2)cc1` [Example 3, N-((1R,2S)-2-phenylcyclopropyl)piperidin-4-amine hydrochloride] came in with an EC50 of 0.8 nM.
